What was measured:
[1] = tested on: corn; experiment: Preemergent control of plant species; format: in vivo, Zea mays; conditions: Zea mays, pre-emergence, 336 h; 0.25 lb/acre; read-out: percent preemergent control
Description: (§1) The seeds of various species of plants were planted in beds of good agricultural soil in a greenhouse. A number of compositions of the present invention, generally in the nature of an aqueous emulsion, were applied at rates listed in the table so as to deposit a predetermined amount of active ingredients uniformly throughout the surface of the bed. Another seed bed was treated only with water to serve as a control. After treatment the seed beds were maintained for two weeks under greenhouse conditions conducive for good plant growth and watered as necessary. Control refers to the reduction in growth compared to the observed results of the same untreated species.

[2] = tested on: johnson grass; experiment: Preemergent control of plant species; format: in vivo, Sorghum halepense; conditions: Sorghum halepense, pre-emergence, 336 h; 0.25 lb/acre; read-out: percent preemergent control
Description: as §1

[3] = tested on: wheat; experiment: Preemergent control of plant species; format: in vivo, Triticum aestivum; conditions: Triticum aestivum, pre-emergence, 336 h; 0.25 lb/acre; read-out: percent preemergent control
Description: as §1

[4] = tested on: yellow foxtail; experiment: Preemergent control of plant species; format: in vivo, Setaria lutescens; conditions: Setaria, pre-emergence, 336 h; 0.25 lb/acre; read-out: percent preemergent control
Description: as §1

[5] = tested on: rape; experiment: Preemergent control of plant species; format: in vivo, Brassica napus; conditions: Brassica napus, pre-emergence, 336 h; 0.25 lb/acre; read-out: percent preemergent control
Description: as §1

[6] = tested on: yellow nutsedge; experiment: Preemergent control of plant species; format: in vivo, Cyperus esculentus; conditions: Cyperus, pre-emergence, 336 h; 0.25 lb/acre; read-out: percent preemergent control
Description: as §1

[7] = tested on: annual morning glory; experiment: Preemergent control of plant species; format: in vivo, Ipomoea spp.; conditions: Ipomoea, pre-emergence, 336 h; 0.25 lb/acre; read-out: percent preemergent control
Description: as §1

[8] = tested on: nitrification of ammonium nitrogen; experiment: Suppression of nitrification of ammonium nitrogen in soil; conditions: 27° C.
Description: A sufficient volume of water was added to 20 g of the soil in a wide-mouth, screw-cap, 4-ounce, glass bottle, such that the moisture content of the mixture was made equal to the 1/3 bar tension value for that soil. The mixture was thoroughly mixed before sealing. […] Acetone slows the rate of soil nitrification and its concentration must be carefully controlled. Single samples of each test chemical were incubated for two weeks at 27° C.
The experiment comprised the following types of samples:
The soil samples were analyzed as follows: Sufficient ammonium sulfate extracting solution was added to the sample, such that the total volume of added water was 50 ml (included water added during sample preparation). The capped mixture was shaken 10 minutes to solubilize nitrate and the soil particulates were allowed to settle. The nitrate concentration in the water phase was determined with a nitrate-specific ion electrode such as Orion Model 93-07.
The non-nitrate nitrogen remaining (% NH4 -N remaining) in the soil after two weeks (performance value) was calculated as follows: [formula]

[9] = tested on: barnyardgrass; experiment: Preemergent control of plant species; format: in vivo, Echinochloa crusgalli; conditions: Echinochloa crus-galli, pre-emergence, 336 h; 0.25 lb/acre; read-out: percent preemergent control
Description: as §1

[10] = tested on: rice; experiment: Preemergent control of plant species; format: in vivo, Oryza sativa; conditions: Oryza sativa, pre-emergence, 336 h; 0.25 lb/acre; read-out: percent preemergent control
Description: as §1

[11] = tested on: soybean; experiment: Preemergent control of plant species; format: in vivo, Glycine max.; conditions: Glycine max, pre-emergence, 336 h; 0.25 lb/acre; read-out: percent preemergent control
Description: as §1

[12] = tested on: cotton; experiment: Preemergent control of plant species; format: in vivo, Gossypium spp.; conditions: Gossypium hirsutum, pre-emergence, 336 h; 0.25 lb/acre; read-out: percent preemergent control
Description: as §1

[13] = tested on: wild oats; experiment: Preemergent control of plant species; format: in vivo; conditions: Avena fatua, pre-emergence, 336 h; 0.25 lb/acre; read-out: percent preemergent control
Description: as §1

[14] = tested on: jimsonweed; experiment: Preemergent control of plant species; format: in vivo, Datura stramonium; conditions: Datura stramonium, pre-emergence, 336 h; 0.25 lb/acre; read-out: percent preemergent control
Description: as §1

[15] = tested on: sugar beet; experiment: Preemergent control of plant species; format: in vivo, Beta saccharifera; conditions: Beta vulgaris, pre-emergence, 336 h; 0.25 lb/acre; read-out: percent preemergent control
Description: as §1

[16] = tested on: velvetleaf; experiment: Preemergent control of plant species; format: in vivo, Abutilon theophrasti; conditions: Abutilon theophrasti, pre-emergence, 336 h; 0.25 lb/acre; read-out: percent preemergent control
Description: as §1

[17] = tested on: sorghum; experiment: Preemergent control of plant species; format: in vivo, Sorghum vulgare; conditions: Sorghum, pre-emergence, 336 h; 0.25 lb/acre; read-out: percent preemergent control
Description: as §1

SMILES	plant injury at 280.212 g/ha [1] [%]	pest or weed control at 280.212 g/ha [2] [%]	plant injury at 280.212 g/ha [3] [%]	pest or weed control at 280.212 g/ha [4] [%]	plant injury at 280.212 g/ha [5] [%]	pest or weed control at 280.212 g/ha [6] [%]	pest or weed control at 280.212 g/ha [7] [%]	% NH4-N Remaining After 2 Weeks Incubation ([8]; 0.06 ppm) [%]	% NH4-N Remaining After 2 Weeks Incubation ([8]; 0.25 ppm) [%]	% NH4-N Remaining After 2 Weeks Incubation ([8]; 1 ppm) [%]	% NH4-N Remaining After 2 Weeks Incubation ([8]; 4 ppm) [%]	pest or weed control at 280.212 g/ha [9] [%]	plant injury at 280.212 g/ha [10] [%]	plant injury at 280.212 g/ha [11] [%]	plant injury at 280.212 g/ha [12] [%]	pest or weed control at 280.212 g/ha [13] [%]	pest or weed control at 280.212 g/ha [14] [%]	plant injury at 280.212 g/ha [15] [%]	pest or weed control at 280.212 g/ha [16] [%]	plant injury at 280.212 g/ha [17] [%]
Cc1cc(C)n2nc(S(=O)(=O)Nc3c(F)cccc3C(=O)OC(C)(C)C)nc2n1 [Compound 56]	30	0	0	20	100	70	90	0	37	59	78	0	0	0	0	0	0	100	50	
Cc1ccc(Cl)c(NS(=O)(=O)c2nc3nc(C)c(Cl)c(C)n3n2)c1Cl [Compound 199]	0	0		0	100	0	20	40	63	78	88		0	70	20	0	0	90	70	
Cc1cn2nc(S(=O)(=O)Nc3c(Cl)cccc3Cl)nc2nc1C [Compound 205]	95	0	0	0	100	70	75	32	38	76	81	50	50	90	100	50	100	100	100	
Cc1cnc2nc(S(=O)(=O)Nc3c(Cl)cccc3Cl)nn2c1 [Compound 192]	10	0	0	70	100	90	97	21	48	74	86	0	0	90	95	0	100	100	100	
CC(=O)N(c1c(Cl)cccc1Cl)S(=O)(=O)c1nc2nc(C)ccn2n1 [Compound 268]	80	80		100	100	100	90	53	71	80	92		100	0	100	30	100	100	100	100
